ChEMBL document CHEMBL3046900, “Synthesis and Fungitoxic Activity of N-Cinnamoyl--Amino Acid Esters” (2000)

Legend:
Athelia rolfsii = test: Fungitoxic activity against Athelia rolfsii assessed as mycelial growth inhibition at 100 ppm after 3 days; type: functional; settings: Agroathelia rolfsii, 72 h; read-out: GI
Pythium = test: Fungitoxic activity against Pythium sp. assessed as mycelial growth inhibition at 100 ppm after 3 days; type: functional; settings: 72 h, read-out: GI

Compound	inhibition of growth at 100 ppm (Athelia rolfsii)	inhibition of growth at 100 ppm (Pythium)
CCOC(=O)[C@H](C)NC(=O)/C=C/c1ccc(Cl)cc1	47%	27%
CC[C@H](C)[C@H](NC(=O)/C=C/c1ccccc1)C(=O)OC	33%	39%
CCOC(=O)[C@@H](NC(=O)/C=C/c1ccccc1)[C@@H](C)CC	30%	49%
COC(=O)[C@H](Cc1ccccc1)NC(=O)/C=C/c1ccccc1	49%	37%
COC(=O)[C@H](C)NC(=O)/C=C/c1ccc(C(C)C)cc1	67%	52%
CCOC(=O)[C@H](CC(C)C)NC(=O)/C=C/c1ccc(C(C)C)cc1	43%	44%
CCCOC(=O)[C@H](CC(C)C)NC(=O)/C=C/c1ccc(C(C)C)cc1	46%	43%
CCOC(=O)[C@H](CC(C)C)NC(=O)/C=C/c1ccc(Cl)cc1Cl	34%	30%
CCCOC(=O)[C@H](CC(C)C)NC(=O)/C=C/c1ccc(Cl)cc1Cl	33%	38%
CC(C)C[C@H](NC(=O)/C=C/c1ccc(Cl)cc1Cl)C(=O)OC(C)C	39%	42%
COC(=O)[C@H](Cc1ccccc1)NC(=O)/C=C/c1ccc(Cl)cc1Cl	46%	38%
CCOC(=O)[C@H](Cc1ccccc1)NC(=O)/C=C/c1ccc(Cl)cc1Cl	35%	18%
CCOC(=O)[C@H](Cc1ccccc1)NC(=O)/C=C/c1ccc(C(C)C)cc1	18%	20%
COC(=O)[C@H](C)NC(=O)/C=C/c1ccc(Cl)cc1	44%	26%
CCCOC(=O)[C@H](C)NC(=O)/C=C/c1ccc(Cl)cc1	38%	21%
CCOC(=O)[C@@H](NC(=O)/C=C/c1ccc(Cl)cc1)C(C)C	47%	54%
COC(=O)[C@H](CC(C)C)NC(=O)/C=C/c1ccc(Cl)cc1	50%	32%
COC(=O)[C@H](Cc1ccccc1)NC(=O)/C=C/c1ccc(Cl)cc1	47%	13%
CCOC(=O)[C@H](Cc1ccccc1)NC(=O)/C=C/c1ccc(Cl)cc1	22%	15%
COC(=O)[C@H](C)NC(=O)/C=C/c1ccc(Cl)cc1Cl	49%	55%
CCCOC(=O)CNC(=O)/C=C/c1ccc(Cl)cc1Cl	28%	40%
COC(=O)[C@H](C)NC(=O)/C=C/c1ccccc1	25%	13%
CCOC(=O)[C@H](C)NC(=O)/C=C/c1ccccc1	14%	21%
CCCOC(=O)[C@H](C)NC(=O)/C=C/c1ccccc1	48%	33%
COC(=O)[C@@H](NC(=O)/C=C/c1ccccc1)C(C)C	29%	33%
CCOC(=O)[C@@H](NC(=O)/C=C/c1ccccc1)C(C)C	41%	41%
COC(=O)[C@H](CC(C)C)NC(=O)/C=C/c1ccccc1	30%	23%
CCOC(=O)[C@H](CC(C)C)NC(=O)/C=C/c1ccccc1	40%	16%
CCCOC(=O)[C@H](CC(C)C)NC(=O)/C=C/c1ccccc1	45%	31%
CC(C)C[C@H](NC(=O)/C=C/c1ccccc1)C(=O)OC(C)C	41%	34%
